# Data reported in patent US20020058795A1, “HYDROPHOBIC GLYCOSYLAMINE DERIVATIVES, COMPOSITIONS, AND METHODS FOR USE” (priority 1997, published 2002).
# Tests used:
# [1] = tested on: established cell lines and primary neuronal cultures; conditions: cited from earlier work
# [2] = tested on: cells; assay: Transfection efficiency: IL-2 expressed by cells given HGD/IL-2 plasmid compositions; assay type: cell-based; conditions: for IL-2 expression by cells: 0.2 μg IL-2 plasmid, cholesterol or DOPE co-lipid, 48 hours
# Protocol: HGDs of the invention formed DNA/HGD complexes that efficiently delivered DNA plasmids to cells. The transfection efficiency was measured after compositions comprising HGDs of the invention, 0.2 μg of DNA plasmids comprising a gene encoding IL-2, and either cholesterol or DOPE as a co-lipid were incubated with cells for 48 hours. The amount of IL-2 expressed by cells administered the compositions was quantified using by an assay disclosed in U.S. application Ser. No. 60/039,709, Raiston et al., “IL-2 Gene Expression and Delivery Systems and Uses,” filed Feb. 10, 1997, incorportated herein by reference in its entirety including any figures, tables, and drawings.
# [3] = tested on: cells; assay: Cell toxicity by total cellular protein synthesis (Bio-Rad Protein Assay) or cell proliferation (XTT); assay type: cell-based
# From the text: Compositions comprising HGDs of the invention, plasmid DNA, and a co-lipid such as DOPE or cholesterol were not appreciably toxic to cells. Toxicity measurements were based upon total cellular protein synthesis (Bio-Rad Protein Assay) or cell proliferation (Cell-Proliferation Kit-XTT, Boehringer Mannheim).
# [4] = tested on: tumors; assay: In vivo anti-tumor efficacy, intratumoral IL-2 plasmid compositions; parameters: species or system mice; conditions: for growth of tumors in mice: compositions with IL-2 plasmid DNA and DOPE, given directly into the tumor; for size of tumors, average: with DNA and DOPE; for size of tumors, average / reduction of growth rates of tumors: 1:2 -/+ charge ratio; for reduction of growth rates of tumors: with IL-2 plasmid DNA and DOPE
# From the text: Compositions comprising HGDs of the invention, plasmid DNA comprising an IL-2 gene, and DOPE efficaciously retarded the growth of tumors in mice. These model-tumor studies involved implanting a tumor into mice, administering a composition of the invention directly into the tumor, and monitoring the growth of tumors in the mice. A protocol for such a procedure is taught in U.S. application Ser. No. 60/039,709, Raiston et al., “IL-2 Gene Expression and Delivery Systems and Uses,” filed Feb. 10, 1997, incorportated herein by reference in its entirety including any figures, tables, and drawings.
# [5] = tested on: SCCVII tumors; assay: CAT reporter gene expression after injection of lipid/DNA complexes into tumors; assay type: in vivo; conditions: complex with CAT DNA plasmid injected into SCCVII tumors; 10% lactose
# Protocol: A variety of HGD/DNA complexes were injected into SCCVII tumors. […] Other lipophilic molecules included DOTMA complexed with cholesterol, DOTIM complexed with DOPE and cholesterol, MMCE complexed with DOPE and cholesterol and DiP-PE, EPMC complexed with DOPE and cholesterol. All complexes comprised 10% lactose.
smiles,measurement,setting,value
CCCCCCCCCCCCCCCCCCN(CCCCCCCCCCCCCCCCCC)C(=O)CNC(=O)C(CCCNCCCN)NCCCN (stereo not drawn) [DOGS],transfection efficiency relative to calcium phosphate,[1],more efficiently than calcium phosphate by at least two orders of magnitude
CCCCCCCCCCCCCCCC(=O)OCC(COP(=O)(O)OCCNC(=O)C(CCCNCCCN)NCCCN)OC(=O)CCCCCCCCCCCCCCC (stereo not drawn) [DPPES],transfection efficiency relative to calcium phosphate,[1],more efficiently than calcium phosphate by at least two orders of magnitude
"CCCCCCCC/C=C\CCCCCCCCO[C@@H]1OC(CO)[C@@H](O)C(O)C1N (stereo partly drawn) [MOG, 1-mono-oleyl-glucosamine]",IL-2 expression compared with DOTMA liposomes,[2]; 1:3 charge ratio,"as large as the amount of IL-2 expressed by cells administered liposomes comprising an efficient delivery lipid, DOTMA"
same,IL-2 expression by cells,[2]; -/+ charge ratio 1:0.5,not significantly expressed
same,IL-2 expression by cells,[2]; -/+ charge ratio 1:3,significantly expressed
same,"expression and recovery of total protein, of normal protein levels","[3]; MOG composition contains DOPE, compared with LipofectAMINE composition",more than 75%
same,health of cells compared with LipofectAMINE liposome compositions,[3],healthier
same,growth of tumors in mice,[4],significantly reduced the growth of tumors
same,"size of tumors, average","[4]; nine days, untreated 600",less than 400 cubic millimeters
same,reduction of growth rates of tumors,[4]; after nine days,more than 30%
same,expression of the CAT reporter gene,[5],highest expression of the CAT reporter gene of any of the lipophilic molecule/DNA complexes tested
"CCCCCCCCCCCCCCCCO[C@@H]1OC(CO)[C@@H](O)C(O)C1N (stereo partly drawn) [MPG, 1-mono-palmityl-glucosamine]",health of cells compared with LipofectAMINE liposome compositions,[3],healthier
same,growth of tumors in mice,[4],significantly reduced the growth of tumors
same,"size of tumors, average","[4]; thirteen days, untreated approximately 1600",less than 1200 cubic millimeters
same,reduction of growth rates of tumors,[4]; after thirteen days,more than 25%
